Measured values published in ChEMBL document CHEMBL5390251, “Pyrazolidinone-based peptidomimetic SARS-CoV-2 Mpro inhibitors” (Bioorg Med Chem Lett, 2023).
The source made the active and inactive calls. The rule behind the calls is not given here.

Key:
[1] = target: Replicase polyprotein 1ab (Severe acute respiratory syndrome coronavirus 2, UniProt P0DTD1); experiment: Inhibition of SARS-Cov-2 Main protease by FRET assay
[2] = target: Replicase polyprotein 1ab (Severe acute respiratory syndrome coronavirus 2) (UniProt P0DTD1); experiment: Inhibition of SARS-Cov-2 Main protease at <=500 uM by FRET assay
Cathepsin K = target: T1, Cathepsin K (Homo sapiens, UniProt P43235); experiment: Inhibition of human Cathepsin K
T1 sequence (P43235 whole entry): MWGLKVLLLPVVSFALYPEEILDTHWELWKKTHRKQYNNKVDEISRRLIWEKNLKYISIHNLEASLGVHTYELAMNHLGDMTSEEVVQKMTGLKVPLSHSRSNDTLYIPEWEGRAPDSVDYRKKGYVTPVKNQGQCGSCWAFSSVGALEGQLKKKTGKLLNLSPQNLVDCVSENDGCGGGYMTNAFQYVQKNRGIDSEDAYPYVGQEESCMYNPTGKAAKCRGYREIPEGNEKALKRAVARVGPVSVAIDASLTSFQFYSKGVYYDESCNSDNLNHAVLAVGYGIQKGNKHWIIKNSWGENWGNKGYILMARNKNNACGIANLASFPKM

[3] = target: Replicase polyprotein 1ab (Severe acute respiratory syndrome coronavirus 2) (UniProt P0DTD1); experiment: Uncompetitive inhibition of SARS-Cov-2 Main protease by Lineweaver-Burk plot analysis

`O=C(N[C@@H](Cc1ccccc1)C(=O)O)c1cc2ccccc2[nH]1` gave an IC50 [1] greater than 500 µM.
With `NC(=O)[C@@H]1CC[C@@H]2CN1C(=O)N2OS(=O)(=O)O` the inhibition [2] was “inactive”.
Molecule `C=CCOC(=O)C1=C(C(=O)O)N2C(=O)[C@@H](NC(=O)[C@H](Cc3ccccc3)NC(=O)c3cc4ccccc4[nH]3)CN2C1` has an IC50 [1] of 192 µM.
With `CC1(C)[C@H](C(=O)O)N2C(=O)C[C@H]2S1(=O)=O` the inhibition [2] was “inactive”.
With `C[C@@H](O)[C@H]1C(=O)N2C(C(=O)O)=C(SCCNC=N)C[C@H]12` the inhibition [2] was “inactive”.
In the case of `CC1(C)S[C@@H]2[C@H](N)C(=O)N2[C@H]1C(=O)O`, the inhibition [2] is reported as “inactive”.
In the case of `C[C@H]1[C@H](NC(=O)[C@H](Cc2ccccc2)NC(=O)c2cc3ccccc3[nH]2)C(=O)N1S(=O)(=O)O`, the IC50 [1] is reported as greater than 500 µM.
Molecule `O=C(N[C@@H](Cc1ccccc1)C(=O)N[C@@H]1CONC1=O)c1cc2ccccc2[nH]1` has an IC50 [1] greater than 500 µM.
Work on `O=C(O)C1=C(C(=O)N2CCCC2)CN2C[C@H](NC(=O)[C@H](Cc3ccccc3)NC(=O)c3cc4ccccc4[nH]3)C(=O)N12` yielded an IC50 [1] of 181 µM.
For `C[C@H]1[C@H](N)C(=O)N1S(=O)(=O)O`, the inhibition [2] was “inactive”.
Work on `CC1(C)S[C@@H]2[C@H](NC(=O)[C@H](Cc3ccccc3)NC(=O)c3cc4ccccc4[nH]3)C(=O)N2[C@H]1C(=O)O` yielded an IC50 [1] of 134 µM.
`CCN(CC)C(=O)C1=C(C(=O)O)N2C(=O)[C@@H](NC(=O)[C@H](Cc3ccccc3)NC(=O)c3cc4ccccc4[nH]3)CN2C1` showed an IC50 [1] of 279 µM.
With `N[C@@H]1C(=O)N2C(C(=O)O)=C(Cl)CS[C@H]12` the inhibition [2] was “inactive”.
`O=C(O)C1=C(C(=O)N(Cc2ccccc2)Cc2ccccc2)CN2C[C@H](NC(=O)[C@H](C[C@@H]3CCNC3=O)NC(=O)[C@H](Cc3ccccc3)NC(=O)c3cc4ccccc4[nH]3)C(=O)N12` gave an IC50 [1] of 163 µM.
With `O=C(O)C1=C(C(=O)NCc2ccccc2)CN2C[C@H](NC(=O)[C@H](Cc3ccccc3)NC(=O)c3cc4ccccc4[nH]3)C(=O)N12` the IC50 [1] was 178 µM.
`CCC1C(=O)N(S(C)(=O)=O)CC1C(=O)OC` (racemic; 10) was tested, and the inhibition [2] was “inactive”.
For `N[C@H]1CN2CC(C(=O)N(Cc3ccccc3)Cc3ccccc3)=C(C(=O)O)N2C1=O`, the inhibition [2] was “inactive” and the IC50 [1] was greater than 500 µM.
`C[C@@H](O)[C@H]1C(=O)N2C(C(=O)O)=C([C@H]3CCCO3)S[C@H]12` was tested, and the inhibition [2] was “inactive”.
`N[C@@H]1CONC1=O` was tested, and the inhibition [2] was “inactive”.
`CN(Cc1ccccc1)C(=O)C1=C(C(=O)O)N2C(=O)[C@@H](NC(=O)[C@H](Cc3ccccc3)NC(=O)c3cc4ccccc4[nH]3)CN2C1` showed an IC50 [1] greater than 500 µM.
`CCC1C(=O)N(S(C)(=O)=O)CC1C(=O)OC` (racemic; 11) was tested, and the inhibition [2] was “inactive”.
In the case of `O=C(O)C1=C(C(=O)N(Cc2ccccc2)Cc2ccccc2)CN2C[C@H](NC(=O)[C@H](Cc3ccccc3)NC(=O)c3cc4ccccc4[nH]3)C(=O)N12`, the IC50 (Cathepsin K) is reported as 64 µM, the IC50 [1] is reported as 45 µM and the inhibition [3] is reported as “Active”.
Work on `O=C(O)C1=C(Cl)CS[C@@H]2[C@H](NC(=O)[C@H](Cc3ccccc3)NC(=O)c3cc4ccccc4[nH]3)C(=O)N12` yielded an IC50 [1] of 90 µM.
`O=C(O)C1=C(C(=O)NCc2ccncc2)CN2C[C@H](NC(=O)[C@H](Cc3ccccc3)NC(=O)c3cc4ccccc4[nH]3)C(=O)N12` gave an IC50 [1] of 201 µM.
